In ChEMBL document CHEMBL1201862, “PubChem BioAssay data set” (2004):
Calls of active or inactive are those of the source.

Experiments:
[1] = molecular target: T1, Leucine aminopeptidase (Plasmodium falciparum 3D7, UniProt Q8IL11); experiment: P. falciparum M17LAP inhibitors, primary screen, biochemical, fluorogenic H-Leu-NHMec substrate, 1536-well (AID 1619); type: functional
T1 sequence (Q8IL11 whole entry): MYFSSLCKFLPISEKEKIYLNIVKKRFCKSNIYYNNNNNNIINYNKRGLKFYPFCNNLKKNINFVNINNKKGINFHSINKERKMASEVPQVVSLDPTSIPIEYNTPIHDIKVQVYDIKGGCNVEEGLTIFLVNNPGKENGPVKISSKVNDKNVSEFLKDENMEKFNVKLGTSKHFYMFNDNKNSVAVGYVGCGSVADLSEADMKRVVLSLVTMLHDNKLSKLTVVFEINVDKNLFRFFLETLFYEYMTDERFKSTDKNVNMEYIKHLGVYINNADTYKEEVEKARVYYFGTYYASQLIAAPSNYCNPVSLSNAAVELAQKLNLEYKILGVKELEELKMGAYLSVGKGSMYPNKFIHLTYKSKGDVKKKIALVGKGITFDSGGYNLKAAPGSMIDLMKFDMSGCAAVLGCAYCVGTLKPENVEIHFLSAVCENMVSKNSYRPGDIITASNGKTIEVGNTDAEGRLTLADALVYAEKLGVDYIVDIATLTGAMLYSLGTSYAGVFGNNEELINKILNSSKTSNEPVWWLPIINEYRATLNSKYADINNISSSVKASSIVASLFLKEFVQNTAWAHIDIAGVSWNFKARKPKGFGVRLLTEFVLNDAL

[2] = molecular target: Aspartyl aminopeptidase (Plasmodium falciparum 3D7, UniProt Q8I2J3); experiment: Counterscreen for inhibitors of M1 and M17 aminopeptidases: QFRET-based biochemical high throughput dose response assay for inhibitors of the Plasmodium falciparum M18 Aspartyl Aminopeptidase (PFM18AAP). [Related PubChem assays: 1619 (Screening assay (M17LAP inhibitors).), 1445 (Screening assay (M1AAP inhibitors).)]
[3] = molecular target: Peroxisome proliferator-activated receptor gamma/Nuclear receptor coactivator 1 (Homo sapiens, UniProt P37231); experiment: (§1) TR-FRET dose response biochemical High Throughput Screening assay for agonists of the steroid receptor coactivator 1 (SRC-1) recruitment by the peroxisome proliferator-activated receptor gamma (PPAR gamma): non-selective agonists. [Related pubchem assays (depositor defined):AID1300, AID1808, AID504735, AID631]; type: protein assay
Sequence of Peroxisome proliferator-activated receptor gamma/Nuclear receptor coactivator 1 (P37231 whole entry): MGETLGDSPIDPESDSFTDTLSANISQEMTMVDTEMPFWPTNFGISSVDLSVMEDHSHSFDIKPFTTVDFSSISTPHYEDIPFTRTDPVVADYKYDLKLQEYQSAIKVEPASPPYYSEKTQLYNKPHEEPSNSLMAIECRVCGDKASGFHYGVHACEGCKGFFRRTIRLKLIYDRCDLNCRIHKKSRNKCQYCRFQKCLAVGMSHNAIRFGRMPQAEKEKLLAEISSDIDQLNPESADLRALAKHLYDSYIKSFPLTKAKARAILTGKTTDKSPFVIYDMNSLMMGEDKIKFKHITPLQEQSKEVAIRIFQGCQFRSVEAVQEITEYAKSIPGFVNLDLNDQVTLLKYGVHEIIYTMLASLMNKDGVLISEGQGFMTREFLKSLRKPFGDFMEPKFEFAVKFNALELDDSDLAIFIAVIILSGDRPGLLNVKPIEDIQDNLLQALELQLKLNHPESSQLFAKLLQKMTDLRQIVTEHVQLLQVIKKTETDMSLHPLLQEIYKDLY
Sequence of Peroxisome proliferator-activated receptor gamma/Nuclear receptor coactivator 1 (Q15788 whole entry, further chain): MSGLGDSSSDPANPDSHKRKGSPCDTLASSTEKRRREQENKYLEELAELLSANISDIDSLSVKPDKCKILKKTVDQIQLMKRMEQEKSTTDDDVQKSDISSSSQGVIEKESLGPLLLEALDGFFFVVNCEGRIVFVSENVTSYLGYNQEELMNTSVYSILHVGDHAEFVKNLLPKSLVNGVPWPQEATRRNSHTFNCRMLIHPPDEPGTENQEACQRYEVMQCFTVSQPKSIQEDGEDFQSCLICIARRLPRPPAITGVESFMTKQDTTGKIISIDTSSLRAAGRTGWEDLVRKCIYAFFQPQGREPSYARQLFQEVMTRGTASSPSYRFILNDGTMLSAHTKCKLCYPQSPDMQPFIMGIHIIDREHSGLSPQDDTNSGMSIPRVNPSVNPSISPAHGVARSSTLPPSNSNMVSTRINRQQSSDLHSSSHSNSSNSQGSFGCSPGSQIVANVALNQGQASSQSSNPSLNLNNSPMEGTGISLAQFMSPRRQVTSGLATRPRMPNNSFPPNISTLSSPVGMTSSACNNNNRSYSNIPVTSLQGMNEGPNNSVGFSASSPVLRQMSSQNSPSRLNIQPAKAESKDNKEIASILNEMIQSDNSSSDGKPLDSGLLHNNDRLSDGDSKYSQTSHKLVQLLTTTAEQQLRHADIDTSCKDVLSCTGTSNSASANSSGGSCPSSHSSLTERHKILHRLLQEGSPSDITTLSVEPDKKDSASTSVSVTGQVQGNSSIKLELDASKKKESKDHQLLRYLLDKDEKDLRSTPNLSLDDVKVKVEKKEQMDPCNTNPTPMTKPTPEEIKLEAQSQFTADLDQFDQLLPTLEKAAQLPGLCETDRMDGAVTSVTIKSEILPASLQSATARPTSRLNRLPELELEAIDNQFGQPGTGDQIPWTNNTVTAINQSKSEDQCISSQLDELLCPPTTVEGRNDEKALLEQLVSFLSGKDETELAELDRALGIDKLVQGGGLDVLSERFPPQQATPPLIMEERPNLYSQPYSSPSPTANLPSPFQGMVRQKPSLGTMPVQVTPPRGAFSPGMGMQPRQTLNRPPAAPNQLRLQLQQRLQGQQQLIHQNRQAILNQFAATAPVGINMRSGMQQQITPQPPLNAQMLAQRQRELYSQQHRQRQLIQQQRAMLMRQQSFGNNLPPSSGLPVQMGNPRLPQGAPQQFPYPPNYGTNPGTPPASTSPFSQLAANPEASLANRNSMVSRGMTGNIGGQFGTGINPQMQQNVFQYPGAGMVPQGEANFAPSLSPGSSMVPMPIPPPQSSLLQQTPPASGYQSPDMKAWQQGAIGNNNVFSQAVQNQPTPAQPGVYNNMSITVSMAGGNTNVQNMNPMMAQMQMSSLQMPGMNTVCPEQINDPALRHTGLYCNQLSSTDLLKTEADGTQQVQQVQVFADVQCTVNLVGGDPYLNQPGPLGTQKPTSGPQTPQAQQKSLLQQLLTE

[4] = molecular target: Peroxisome proliferator-activated receptor gamma/Nuclear receptor coactivator 3 (Homo sapiens, UniProt P37231); experiment: as §1, with “3 (SRC-3)” for “1 (SRC-1)”, “assays: 1301 (Confirmation screen.), 1048 (Primary screen.)]” for “assays (depositor defined):AID1300, AID1808, AID504735, AID631]”; type: functional
[5] = molecular target: Procathepsin L (Homo sapiens, UniProt P07711); experiment: CTSL1 protease inhibition – biochemical, QFRET, 1536-well, counter-screen for M1/M17 aminopeptidase inhibitor project, dose response (AID 2214)
Sequence of Procathepsin L (P07711 whole entry): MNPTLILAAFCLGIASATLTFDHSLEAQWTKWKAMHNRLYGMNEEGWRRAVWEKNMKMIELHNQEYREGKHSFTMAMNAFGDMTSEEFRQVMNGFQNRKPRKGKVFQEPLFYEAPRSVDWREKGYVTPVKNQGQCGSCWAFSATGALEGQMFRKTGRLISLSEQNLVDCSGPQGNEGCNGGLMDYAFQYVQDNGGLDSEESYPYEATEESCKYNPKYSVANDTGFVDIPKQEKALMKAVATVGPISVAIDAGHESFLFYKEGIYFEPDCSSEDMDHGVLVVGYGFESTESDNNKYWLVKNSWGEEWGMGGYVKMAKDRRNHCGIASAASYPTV

[6] = molecular target: Peroxisome proliferator-activated receptor gamma/Nuclear receptor coactivator 2 (Homo sapiens, UniProt P37231); experiment: TR-FRET dose response biochemical High Throughput Screening assay for agonists of the steroid receptor coactivator 2 (SRC-2) recruitment by the peroxisome proliferator-activated receptor gamma (PPAR gamma): non-selective agonists. [Related pubchem assays: 1297, 1032 ]; type: functional
Sequence of Peroxisome proliferator-activated receptor gamma/Nuclear receptor coactivator 2 (P37231 whole entry): as the sequence (P37231 whole entry) above
Sequence of Peroxisome proliferator-activated receptor gamma/Nuclear receptor coactivator 2 (Q15596 whole entry, further chain): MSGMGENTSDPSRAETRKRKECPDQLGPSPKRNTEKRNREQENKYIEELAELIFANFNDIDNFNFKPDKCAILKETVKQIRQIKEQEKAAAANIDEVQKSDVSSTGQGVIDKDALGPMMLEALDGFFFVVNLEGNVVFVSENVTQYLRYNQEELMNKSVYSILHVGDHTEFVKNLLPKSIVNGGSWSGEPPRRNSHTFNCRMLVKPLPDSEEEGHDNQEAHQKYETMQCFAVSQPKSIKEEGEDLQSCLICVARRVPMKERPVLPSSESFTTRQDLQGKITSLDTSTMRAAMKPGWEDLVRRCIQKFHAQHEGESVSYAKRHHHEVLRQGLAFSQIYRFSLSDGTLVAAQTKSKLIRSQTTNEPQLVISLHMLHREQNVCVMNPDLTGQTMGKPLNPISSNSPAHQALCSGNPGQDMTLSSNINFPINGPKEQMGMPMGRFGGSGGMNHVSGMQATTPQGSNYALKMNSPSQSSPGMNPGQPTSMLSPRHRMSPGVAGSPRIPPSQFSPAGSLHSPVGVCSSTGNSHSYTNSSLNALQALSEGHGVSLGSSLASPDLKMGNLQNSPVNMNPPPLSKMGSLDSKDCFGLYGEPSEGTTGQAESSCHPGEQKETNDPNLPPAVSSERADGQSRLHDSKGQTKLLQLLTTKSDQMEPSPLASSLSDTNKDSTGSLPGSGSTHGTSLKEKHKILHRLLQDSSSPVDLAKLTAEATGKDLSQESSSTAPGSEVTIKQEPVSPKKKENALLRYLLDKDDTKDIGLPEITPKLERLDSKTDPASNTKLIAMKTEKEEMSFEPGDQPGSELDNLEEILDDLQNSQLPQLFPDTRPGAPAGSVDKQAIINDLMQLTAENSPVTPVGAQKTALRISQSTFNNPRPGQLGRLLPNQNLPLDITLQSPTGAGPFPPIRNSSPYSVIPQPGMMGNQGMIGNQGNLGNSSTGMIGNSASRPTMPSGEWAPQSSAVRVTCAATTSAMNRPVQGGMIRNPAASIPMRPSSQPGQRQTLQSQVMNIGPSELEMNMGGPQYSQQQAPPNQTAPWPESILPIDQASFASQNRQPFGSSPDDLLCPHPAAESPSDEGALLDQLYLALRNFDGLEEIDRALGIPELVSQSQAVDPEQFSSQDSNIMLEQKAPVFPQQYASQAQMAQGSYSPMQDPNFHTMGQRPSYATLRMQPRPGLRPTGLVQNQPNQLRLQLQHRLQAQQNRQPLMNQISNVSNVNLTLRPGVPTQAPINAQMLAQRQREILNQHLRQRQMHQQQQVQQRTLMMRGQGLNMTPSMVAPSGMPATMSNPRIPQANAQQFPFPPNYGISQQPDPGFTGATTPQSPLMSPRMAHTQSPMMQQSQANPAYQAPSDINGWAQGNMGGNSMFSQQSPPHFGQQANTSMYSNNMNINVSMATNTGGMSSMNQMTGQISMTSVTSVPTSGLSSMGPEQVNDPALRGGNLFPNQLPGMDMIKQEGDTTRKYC

[7] = molecular target: T2, Mannose-6-phosphate isomerase (Homo sapiens, UniProt P34949); experiment: phosphomannose isomerase inhibition – biochemical, fluorescence intensity, confirmation (AID 1535)
T2 sequence (P34949 whole entry): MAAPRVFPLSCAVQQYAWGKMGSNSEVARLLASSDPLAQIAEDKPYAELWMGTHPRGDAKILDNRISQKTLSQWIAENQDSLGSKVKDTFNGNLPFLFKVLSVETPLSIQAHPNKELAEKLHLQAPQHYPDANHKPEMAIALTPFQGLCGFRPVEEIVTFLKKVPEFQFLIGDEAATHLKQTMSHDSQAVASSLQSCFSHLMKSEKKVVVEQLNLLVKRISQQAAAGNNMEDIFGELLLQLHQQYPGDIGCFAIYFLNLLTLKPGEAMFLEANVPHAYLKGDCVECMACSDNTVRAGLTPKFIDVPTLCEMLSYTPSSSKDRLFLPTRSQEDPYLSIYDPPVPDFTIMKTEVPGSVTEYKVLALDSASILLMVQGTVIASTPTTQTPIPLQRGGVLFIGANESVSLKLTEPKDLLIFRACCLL

[8] = molecular target: Phosphomannomutase 2 (Homo sapiens, UniProt O15305); experiment: Counter screen SAR assay for PMM2 inhibitors via a fluorescence intensity assay. [Related pubchem assays (depositor defined):AID1545, AID1574]
[9] = molecular target: FAD-linked sulfhydryl oxidase ALR (Homo sapiens, UniProt P55789); experiment: ALR-catalysed DTT oxidation blockers – biochemical, H2O2 detection, luminescence, cherry-pick, dose response (AID 493248)
Sequence of FAD-linked sulfhydryl oxidase ALR (P55789 whole entry): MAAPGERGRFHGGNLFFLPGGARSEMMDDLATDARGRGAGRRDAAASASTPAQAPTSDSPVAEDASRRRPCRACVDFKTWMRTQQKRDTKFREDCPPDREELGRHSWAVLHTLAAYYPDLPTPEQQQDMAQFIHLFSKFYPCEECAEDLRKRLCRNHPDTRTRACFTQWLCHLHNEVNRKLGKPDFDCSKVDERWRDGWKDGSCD

[10] = luciferase reporter signal suppression in cells – H4 neuroglioma cells, luminescence, dose response (AID 1990); type: functional, cell-based
[11] = Luminescence Cell-Based Dose Response HTS to Identify Inhibitors of 5'UTR Stem-Loop Driven Prion Protein mRNA Translation in H4 Neuroglioblastoma Cells. [Related pubchem assays: 1827 (Project Summary), 1813 (Primary HTS)]; type: functional
[12] = alpha-synuclein stem-loop luciferase translation blockers – H4 neuroglioma cells, luminescence, confirmation (AID 1988); type: functional, cell-based
[13] = molecular target: Type-1 angiotensin II receptor (Homo sapiens, UniProt P30556); experiment: agonist activity at AGTR1 – cell-based, uHTS hits, selectivity assay for APJ receptor agonist project, dose response (AID 488865); type: functional;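 note: beta-arrestin recruitment to AT1 measured by enzyme fragment complementation luminescence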
[14] = molecular target: T3, E3 ubiquitin-protein ligase XIAP (Homo sapiens, UniProt P98170); experiment: Counter Screen using XIAP-Bir3 for Chemical Antagonists of Bir1/2 domains of IAP-family anti-apoptotic proteins. [Related pubchem assays (depositor defined):AID1018, AID1449, AID1514, AID1638, AID1749, AID1750, AID488957, AID488963]
T3 sequence (P98170 whole entry): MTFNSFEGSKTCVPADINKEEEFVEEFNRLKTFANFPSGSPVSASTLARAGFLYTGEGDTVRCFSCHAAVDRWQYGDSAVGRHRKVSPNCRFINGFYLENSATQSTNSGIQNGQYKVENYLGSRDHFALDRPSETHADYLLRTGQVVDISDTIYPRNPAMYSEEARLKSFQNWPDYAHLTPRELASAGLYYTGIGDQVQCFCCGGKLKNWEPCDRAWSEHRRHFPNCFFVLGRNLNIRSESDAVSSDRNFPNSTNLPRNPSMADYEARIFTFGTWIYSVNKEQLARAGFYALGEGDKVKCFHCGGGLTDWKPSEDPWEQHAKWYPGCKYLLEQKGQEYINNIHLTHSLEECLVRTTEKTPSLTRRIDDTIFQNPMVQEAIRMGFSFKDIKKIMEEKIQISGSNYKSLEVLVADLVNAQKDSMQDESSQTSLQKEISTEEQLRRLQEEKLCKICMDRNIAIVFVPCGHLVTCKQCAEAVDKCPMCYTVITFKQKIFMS

[15] = molecular target: T3, E3 ubiquitin-protein ligase XIAP; experiment: small molecules displacing peptide from XIAP – biochemical, IAP family, fluorescence polarization (AID 1018); type: functional
[16] = molecular target: T4, Microphthalmia-associated transcription factor (Homo sapiens, UniProt O75030); experiment: MITF Measured in Cell-Based System Using Plate Reader - 2084-01_Inhibitor_DoseNoFile_CherryPick_Activity_Set2. [Related pubchem assays (depositor defined):AID488944]; type: functional
T4 sequence (O75030 whole entry): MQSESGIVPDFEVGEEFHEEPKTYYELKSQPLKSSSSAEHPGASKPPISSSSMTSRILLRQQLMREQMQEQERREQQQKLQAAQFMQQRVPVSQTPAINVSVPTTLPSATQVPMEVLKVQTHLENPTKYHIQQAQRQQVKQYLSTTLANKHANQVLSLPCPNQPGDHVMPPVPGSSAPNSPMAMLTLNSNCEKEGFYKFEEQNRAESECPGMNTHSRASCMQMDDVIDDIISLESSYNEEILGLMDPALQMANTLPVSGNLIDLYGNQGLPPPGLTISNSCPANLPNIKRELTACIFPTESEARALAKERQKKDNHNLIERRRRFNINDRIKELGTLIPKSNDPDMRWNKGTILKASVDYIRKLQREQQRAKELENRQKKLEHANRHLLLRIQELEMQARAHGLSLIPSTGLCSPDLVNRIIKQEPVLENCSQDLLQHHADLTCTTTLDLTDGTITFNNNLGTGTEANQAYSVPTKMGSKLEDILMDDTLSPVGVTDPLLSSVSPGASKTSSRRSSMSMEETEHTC

[17] = molecular target: T4, Microphthalmia-associated transcription factor; experiment: reducers of TRPM1 reporter luminescence, concentration series – cell-based, SK-MEL-5, cherry-picked, set 4, MITF inhibitor project, dose response (AID 493102); type: functional
[18] = molecular target: T4, Microphthalmia-associated transcription factor; experiment: reducers of TRPM1 reporter luminescence, concentration series – cell-based, SK-MEL-5, cherry-picked, set 3, MITF inhibitor project, dose response (AID 493073); type: functional;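 note: SK-MEL-5 melanoma cells with luciferase driven by the MITF target TRPM1 promoter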
[19] = molecular target: Hexokinase (Trypanosoma brucei, UniProt Q38C41); experiment: Confirmation assay for inhibitors of Trypanosoma brucei hexokinase 1-Analogue-first series. [Related pubchem assays (depositor defined):AID1430, AID1632, AID2516, AID2560, AID2579, AID2600, AID449725, AID492951]; type: functional

In the case of `Sc1n[nH]c(-c2cccc(Cl)c2)n1`, the IC50 [1] is reported as 3.56 µM (active), the IC50 [2] is reported as 15.6 µM (not active) and the EC50 [3] is reported as > 79.4 µM (inactive). For the same compound, the EC50 [4] was > 79.4 µM (not active), the IC50 [5] was > 59.6 µM (not active) and the EC50 [6] was > 79.4 µM (not active). The IC50 [7] was 1.94 µM (active), the IC50 [8] was > 100 µM (inactive) and the AC50 [9] was 0.097 µM (active).
With `C=CCn1c(SCC(=O)N2CCN(c3ccccc3)CC2)nc2c3ccccc3nc-2c1O` the EC50 [10] was > 120 µM (not active), the EC50 [11] was 14.2 µM (active) and the EC50 [12] was 8.55 µM (active). The EC50 [13] was > 100 µM (inactive).
For `Cc1cc2oc(=O)cc(C)c2cc1NC(=O)CCC(=O)O`, the IC50 [14] was > 100 µM (inactive), the IC50 [15] was > 100 µM (not active) and the AC50 [16] was > 350 µM (inactive). The AC50 [17] was > 350 µM (inactive) and the AC50 [18] was > 350 µM (inactive).
For `O=C(Nc1cc(Cl)ccc1C(=O)O)c1ccsc1`, the IC50 [19] was > 25 µM (inactive).
